# PubChem BioAssay (NCI)
#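 The concentration for 50% growth inhibition is given as GI50. TGI: total growth inhibition.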
# Columns and labels:
# Test in all cases: NCI tumour cell line growth inhibition, 384-well format
# BT-549 breast = tested on: BT-549 breast
# CAKI-1 renal = tested on: CAKI-1 renal
# CCRF-CEM leukemia = tested on: CCRF-CEM leukemia
# HOP-62 NSCLC = tested on: HOP-62 NSCLC
# IGROV1 ovarian = tested on: IGROV1 ovarian
# LOX IMVI melanoma = tested on: LOX IMVI melanoma
# MCF7 breast = tested on: MCF7 breast
# MDA-MB-468 breast = tested on: MDA-MB-468 breast
# OVCAR-5 ovarian = tested on: OVCAR-5 ovarian
# RPMI-8226 leukemia = tested on: RPMI-8226 leukemia
# SN12C renal = tested on: SN12C renal
# SNB-75 CNS = tested on: SNB-75 CNS
# TK-10 renal = tested on: TK-10 renal
structure (smiles),measurement,setting,value
O=C1CC[C@H](N2Cc3c(OCc4ccc(CN5CCOCC5)cc4)cccc3C2=O)C(=O)N1,GI50,BT-549 breast,> 100 µM
same,TGI,BT-549 breast,> 100 µM
same,GI50,CAKI-1 renal,> 100 µM
same,TGI,CAKI-1 renal,> 100 µM
same,GI50,CCRF-CEM leukemia,> 100 µM
same,TGI,CCRF-CEM leukemia,> 100 µM
same,GI50,HOP-62 NSCLC,> 100 µM
same,TGI,HOP-62 NSCLC,> 100 µM
same,GI50,IGROV1 ovarian,> 100 µM
same,TGI,IGROV1 ovarian,> 100 µM
same,GI50,LOX IMVI melanoma,> 100 µM
same,TGI,LOX IMVI melanoma,> 100 µM
same,GI50,MCF7 breast,> 100 µM
same,TGI,MCF7 breast,> 100 µM
same,GI50,MDA-MB-468 breast,> 100 µM
same,TGI,MDA-MB-468 breast,> 100 µM
same,GI50,OVCAR-5 ovarian,> 100 µM
same,TGI,OVCAR-5 ovarian,> 100 µM
same,GI50,RPMI-8226 leukemia,11.9 µM
same,TGI,RPMI-8226 leukemia,> 100 µM
same,GI50,SN12C renal,> 100 µM
same,TGI,SN12C renal,> 100 µM
same,GI50,SNB-75 CNS,> 100 µM
same,TGI,SNB-75 CNS,> 100 µM
same,GI50,TK-10 renal,> 100 µM
same,TGI,TK-10 renal,> 100 µM
